Experimental data reported in patent US12071425B2 (Genentech, Inc., priority 2018, dated 2024).
Structures can show the parent of a compound that is named as a salt.

Target: kinase domain of IRE1 alpha (His-tagged kinase dead construct KR, AA G547-L977, D688N) (Homo sapiens (Human), UniProt O75460, D688N)
Experiment: IRE1α TR-FRET competition binding assay
Conditions: competition with Kinase Tracer 236, 0.1 μM; one hour at room temperature
How it was run: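 Sf9-expressed kinase-dead KR construct (0.006 μM final) pre-incubated 1 h at 4° C with Eu anti-His antibody (0.002 μM) in HEPES pH 7.5/MgCl2/Brij/DTT buffer; Kinase Tracer 236 (ATP-competitive probe, 0.1 μM final) added with compound. 1 h at room temperature; tracer displacement read by TR-FRET (665/615 nm).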

Chain of kinase domain of IRE1 alpha (His-tagged kinase dead construct KR, AA G547-L977, D688N) (O75460 547-977 D688N): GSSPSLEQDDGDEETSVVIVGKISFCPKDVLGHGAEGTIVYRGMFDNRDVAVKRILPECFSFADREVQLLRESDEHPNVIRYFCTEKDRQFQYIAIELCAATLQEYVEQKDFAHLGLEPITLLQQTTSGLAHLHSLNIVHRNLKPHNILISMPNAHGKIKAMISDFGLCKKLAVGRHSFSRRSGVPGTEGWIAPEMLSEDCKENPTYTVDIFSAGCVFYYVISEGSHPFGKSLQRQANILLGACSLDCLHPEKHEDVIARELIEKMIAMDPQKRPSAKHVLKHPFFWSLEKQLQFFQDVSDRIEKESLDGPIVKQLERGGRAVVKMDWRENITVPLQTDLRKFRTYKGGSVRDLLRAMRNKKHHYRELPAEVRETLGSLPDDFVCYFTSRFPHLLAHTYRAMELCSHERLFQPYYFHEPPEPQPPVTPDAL

C[C@@]1(F)CNC[C@@H](Nc2nccc(-c3cccnc3Oc3cc(F)c(NS(=O)(=O)CC4CC(F)(F)C4)c(F)c3F)n2)C1 [Compound 251, 1-(3,3-Difluorocyclobutyl)-N-(2,3,6-trifluoro-4-((3-(2-(((3S,5S)-5-fluoro-5-methylpiperidin-3-yl)amino)pyrimidin-4-yl)pyridin-2-yl)oxy)phenyl)methanesulfonamide]
IC50: 2.8 nM

O=S(=O)(Cc1ccccc1)Nc1ccc(Oc2ncccc2-c2ccnc(N[C@H]3CCNC3)n2)c(F)c1F [Compound 167, (S)—N-(2,3-Difluoro-4-((3-(2-(pyrrolidin-3-ylamino)pyrimidin-4-yl)pyridin-2-yl)oxy)phenyl)-1-phenylmethanesulfonamide]
IC50: 17 nM

O=S(=O)(Nc1ccc(Oc2ncccc2-c2ccnc(N[C@H]3CCCNC3)n2)c(F)c1F)c1ccccc1 [Compound 218, (S)-N-(2,3-difluoro-4-((3-(2-(piperidin-3-ylamino)pyrimidin-4-yl)pyridin-2-yl)oxy)phenyl)benzenesulfonamide]
IC50: 16 nM

Cc1ccc(NS(=O)(=O)Cc2ccccc2)cc1Oc1ncccc1-c1ccnc(N[C@H]2CCCNC2)n1 [Compound 136, (S)—N-(4-Methyl-3-((3-(2-(piperidin-3-ylamino)pyrimidin-4-yl)pyridin-2-yl)oxy)phenyl)-1-phenylmethanesulfonamide hydrochloride]
IC50: 200 nM

CCC(F)(F)CS(=O)(=O)Nc1c(F)cc(Oc2nc(C)ccc2-c2ccnc(N[C@@H]3CNC[C@@H](F)C3)n2)c(F)c1F [Compound 270, 2,2-Difluoro-N-(2,3,6-trifluoro-4-((3-(2-(((3S,5S)-5-fluoropiperidin-3-yl)amino)pyrimidin-4-yl)-6-methylpyridin-2-yl)oxy)phenyl)butane-1-sulfonamide]
IC50: 0.54 nM

COCCN(C)[C@H]1CC[C@H](Nc2nccc(-c3cccnc3Oc3cc(F)c(NS(=O)(=O)C4CCCCC4)c(F)c3F)n2)CC1 [Compound 350, N-(2,3,6-Trifluoro-4-((3-(2-(((1r,4r)-4-((2-methoxyethyl)(methyl)amino)cyclohexyl)amino)pyrimidin-4-yl)pyridin-2-yl)oxy)phenyl)cyclohexanesulfonamide]
IC50: 0.42 nM

Cc1c(NS(=O)(=O)c2ccccc2Cl)cccc1Oc1ncccc1-c1ccnc(N[C@H]2CCCNC2)n1 [Compound 139, (S)-2-Chloro-N-(2-methyl-3-((3-(2-(piperidin-3-ylamino)pyrimidin-4-yl)pyridin-2-yl)oxy)phenyl)benzenesulfonamide hydrochloride]
IC50: 46 nM

O=S(=O)(Cc1c(F)cccc1Cl)Nc1c(F)cc(Oc2ncccc2-c2ccnc(N[C@@H]3CNC[C@@H](F)C3)n2)c(F)c1F [Compound 367, 1-(2-Chloro-6-fluorophenyl)-N-(2,3,6-trifluoro-4-((3-(2-(((3S,5S)-5-fluoropiperidin-3-yl)amino)pyrimidin-4-yl)pyridin-2-yl)oxy)phenyl)methanesulfonamide]
IC50: 0.2 nM

O=S(=O)(Cc1ccccc1)Nc1ccc(Oc2ncccc2-c2ccnc(N[C@H]3CCCNC3)n2)cc1C(F)(F)F [Compound 113, (S)-1-phenyl-N-(4-((3-(2-(piperidin-3-ylamino)pyrimidin-4-yl)pyridin-2-yl)oxy)-2-(trifluoromethyl)phenyl)methanesulfonamide]
IC50: 11 nM

O=S(=O)(Cc1ccccc1)Nc1ccc(Oc2ncccc2-c2ccnc(N[C@@H]3CNCC(F)(F)C3)n2)c(F)c1F [Compound 183, (S)-N-(4-((3-(2-((5,5-difluoropiperidin-3-yl)amino)pyrimidin-4-yl)pyridin-2-yl)oxy)-2,3-difluorophenyl)-1-phenylmethanesulfonamide]
IC50: 8.5 nM

O=S(=O)(Cc1ccccc1)Nc1c(F)cc(Oc2ncccc2-c2ccnc(N[C@H]3CCCNC3)n2)cc1F [Compound 152, (S)-N-(2,6-difluoro-4-((3-(2-(piperidin-3-ylamino)pyrimidin-4-yl)pyridin-2-yl)oxy)phenyl)-1-phenylmethanesulfonamide hydrochloride]
IC50: 3.9 nM

CC(F)(F)C1CNCC(Nc2nccc(-c3cccnc3Oc3cc(F)c(NS(=O)(=O)Cc4ccccc4)c(F)c3F)n2)C1 (racemic) [Compound 337, N-(4-((3-(2-((5-(1,1-Difluoroethyl)piperidin-3-yl)amino)pyrimidin-4-yl)pyridin-2-yl)oxy)-2,3,6-trifluorophenyl)-1-phenylmethanesulfonamide hydrochloride]
IC50: 8.9 nM

CC(F)C1CNCC(Nc2nccc(-c3cccnc3Oc3cc(F)c(NS(=O)(=O)Cc4ccccc4)c(F)c3F)n2)C1 (single isomer, unassigned) [Compound 342, 1-Phenyl-N-(2,3,6-trifluoro-4-((3-(2-((5-(1-fluoroethyl)piperidin-3-yl)amino)pyrimidin-4-yl)pyridin-2-yl)oxy)phenyl)methanesulfonamide hydrochloride]
IC50: 0.16 nM

CN(C)[C@H]1CC[C@H](Nc2nccc(-c3cccnc3Oc3cc(F)c(NS(=O)(=O)CCC(C)(F)F)c(F)c3F)n2)CC1 [Compound 310, N-(4-((3-(2-(((1r,4r)-4-(Dimethylamino)cyclohexyl)amino)pyrimidin-4-yl)pyridin-2-yl)oxy)-2,3,6-trifluorophenyl)-3,3-difluorobutane-1-sulfonamide]
IC50: 0.32 nM

O=S(=O)(Cc1cccnc1C(F)(F)F)Nc1c(F)cc(Oc2ncccc2-c2ccnc(N[C@@H]3CNC[C@@H](F)C3)n2)c(F)c1F [Compound 389, N-(2,3,6-Trifluoro-4-((3-(2-(((3S,5S)-5-fluoropiperidin-3-yl)amino)pyrimidin-4-yl)pyridin-2-yl)oxy)phenyl)-1-(2-(trifluoromethyl)pyridin-3-yl)methanesulfonamide]
IC50: 0.3 nM

CC(F)(F)CCS(=O)(=O)Nc1c(F)cc(Oc2ncccc2-c2ccnc(N[C@@H]3CNC[C@@H](F)C3)n2)c(F)c1F [Compound 253, 3,3-Difluoro-N-(2,3,6-trifluoro-4-((3-(2-(((3S,5S)-5-fluoropiperidin-3-yl)amino)pyrimidin-4-yl)pyridin-2-yl)oxy)phenyl)butane-1-sulfonamide]
IC50: 1.9 nM

CC1(CF)CNCC(Nc2nccc(-c3cccnc3Oc3cc(F)c(NS(=O)(=O)Cc4ccccc4)c(F)c3F)n2)C1 (single isomer, unassigned) [Compound 294, 1-Phenyl-N-(2,3,6-trifluoro-4-((3-(2-((5-(fluoromethyl)-5-methylpiperidin-3-yl)amino)pyrimidin-4-yl)pyridin-2-yl)oxy)phenyl)methanesulfonamide]
IC50: 0.59 nM

O=S(=O)(CC1CC(F)(F)C1)Nc1ccc(Oc2ncccc2-c2ccnc(N[C@H]3CCCNC3)n2)c(F)c1F [Compound 232, (S)-N-(2,3-difluoro-4-(3-(2-(piperidin-3-ylamino)pyrimidin-4-yl)pyridin-2-yloxy)phenyl)-1-(3,3-difluorocyclobutyl)methanesulfonamide]
IC50: 15 nM

C[C@@]1(F)CNC[C@@H](Nc2nccc(-c3cccnc3Oc3cc(F)c(NS(=O)(=O)Cc4ccc(F)cc4F)c(F)c3F)n2)C1 [Compound 281, 1-(2,4-Difluorophenyl)-N-(2,3,6-trifluoro-4-((3-(2-(((3S,5S)-5-fluoro-5-methylpiperidin-3-yl)amino)pyrimidin-4-yl)pyridin-2-yl)oxy)phenyl)methanesulfonamide]
IC50: 0.34 nM

O=S(=O)(Cc1ccccc1)Nc1c(F)cc(Oc2ncccc2-c2ccnc(NC3CNCC(CF)C3)n2)c(F)c1F (single isomer, unassigned) [Compound 278, 1-Phenyl-N-(2,3,6-trifluoro-4-((3-(2-((5-(fluoromethyl)piperidin-3-yl)amino)pyrimidin-4-yl)pyridin-2-yl)oxy)phenyl)methanesulfonamide]
IC50: 0.78 nM

C[C@@]1(F)CNC[C@@H](Nc2nccc(-c3cccnc3Oc3cc(F)c(NS(=O)(=O)Cc4ccccc4)c(F)c3F)n2)C1 [Compound 190, 1-Phenyl-N-(2,3,6-trifluoro-4-((3-(2-(((3S,5S)-5-fluoro-5-methyl-3-piperidyl)amino)pyrimidin-4-yl)-2-pyridyl)oxy)phenyl)methanesulfonamide]
IC50: 4.7 nM

O=S(=O)(Cc1ccccc1)Nc1c(F)cc(Oc2ncccc2-c2ccnc(NC3CC4CCCN(C4)C3)n2)c(F)c1F (single isomer, unassigned) [Compound 288, N-(4-((3-(2-((1-azabicyclo[3.3.1]nonan-3-yl)amino)pyrimidin-4-yl)pyridin-2-yl)oxy)-2,3,6-trifluorophenyl)-1-phenylmethanesulfonamide]
IC50: 1.1 nM

O=S(=O)(Cc1ccc(C(F)(F)F)nc1)Nc1c(F)cc(Oc2ncccc2-c2ccnc(N[C@H]3CCCNC3)n2)c(F)c1F [Compound 196, (S)-N-(2,3,6-trifluoro-4-((3-(2-(piperidin-3-ylamino)pyrimidin-4-yl)pyridin-2-yl)oxy)phenyl)-1-(6-(trifluoromethyl)pyridin-3-yl)methanesulfonamide]
IC50: 2.5 nM

NC(=O)c1ccc(CS(=O)(=O)Nc2c(F)cc(Oc3ncccc3-c3ccnc(N[C@@H]4CNC[C@@H](F)C4)n3)c(F)c2F)c(F)c1 [Compound 361, 3-Fluoro-4-[[2,3,6-trifluoro-4-[[3-[2-[[(3S,5S)-5-fluoro-3-piperidyl]amino]pyrimidin-4-yl]-2-pyridyl]oxy]phenyl]sulfamoylmethyl]benzamide]
IC50: 0.3 nM

O=S(=O)(Cc1ccccc1F)Nc1c(F)cc(Oc2ncccc2-c2ccnc(N[C@@H]3CNC[C@@H](F)C3)n2)c(F)c1F [Compound 355, 1-(2-Fluorophenyl)-N-[2,3,6-trifluoro-4-[[3-[2-[[(3S,5S)-5-fluoro-3-piperidyl]amino]pyrimidin-4-yl]-2-pyridyl]oxy]phenyl]methanesulfonamide]
IC50: 0.2 nM

O=S(=O)(Cc1ccccc1F)Nc1c(F)cc(Oc2ncccc2-c2ccnc(NC3CNCC(C4CC4)C3)n2)c(F)c1F (single isomer, unassigned) [Compound 325, N-(4-((3-(2-((5-Cyclopropylpiperidin-3-yl)amino)pyrimidin-4-yl)pyridin-2-yl)oxy)-2,3,6-trifluorophenyl)-1-(2-fluorophenyl)methanesulfonamide]
IC50: 22 nM
